Data taken from patent publication US3984432A, “Color photographic recording material” (priority 1973, dated 1976).

What was measured:
[1] = Solubility of coupling agents in tricresyl phosphate (oil) at 20° C (Table A); format: physicochemical
[2] = Absorption maximum after colour development in a photographic silver halide layer according to Use Example I; format: physicochemical; conditions: for Abs.max., first of two maxima (subsidiary maximum) / Abs.max., second of two maxima (absorption maximum): pyrazolone coupling agents
How it was run: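 Coupling agent dispersed in tricresyl phosphate with gelatine at pH 6.5, mixed with silver bromide emulsion and hardener, cast on glass plates and dried at 32° C. Strips exposed to 500 Lux/cm^2 under a step wedge for 2 seconds, then processed at 24° C; absorption maximum read after colour development.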

| SMILES | Solubility in g per g of tricresyl phosphate [1] | Abs.max. (single maximum) [2] | Abs.max., first of two maxima (subsidiary maximum) [2] | Abs.max., second of two maxima (absorption maximum) [2] |
| --- | --- | --- | --- | --- |
| CCCCCCCCCCOc1cccc(OCCC(=O)Nc2cccc(NC(=O)CC(=O)c3ccccc3C)c2)c1 [DT-OS 2,039,970] | 1 g per g of tricresyl phosphate |  |  |  |
| CCCCCCCCCCCCCCCc1cccc(OC(CC)C(=O)Nc2cc(Cl)c(C)c(Cl)c2O)c1 (centres unmarked) | 0.7 g per g of tricresyl phosphate |  |  |  |
| CCCCCCCCCCCCCCCc1cccc(OC(CC)C(=O)Nc2cccc(C(=O)NC3=NN(c4c(Cl)cc(Cl)cc4Cl)C(=O)C3)c2)c1 (centres unmarked) | 0.3 g per g of tricresyl phosphate |  |  |  |
| CCCCCCCCCCCCOc1cccc(OC(CC)C(=O)Nc2cccc(C(=O)NC3=NN(c4c(Cl)cc(Cl)cc4Cl)C(=O)C3)c2)c1 (centres unmarked) | 0.4 g per g of tricresyl phosphate |  |  |  |
| CCC(C)(C)c1ccc(OCC(=O)Nc2cccc(C(=O)NC3=NN(c4c(Cl)cc(Cl)cc4Cl)C(=O)C3)c2)c(C(C)(C)CC)c1 | 0.6 g per g of tricresyl phosphate |  |  |  |
| CCC(Oc1ccc(C(C)(C)CC)cc1C(C)(C)CC)C(=O)Nc1cc(Cl)c(C)c(Cl)c1O (centres unmarked) [US-PS 2,801,171 Coupling agent No. (4)] | 0.4 g per g of tricresyl phosphate |  |  |  |
| CCCCC(CC)COP(=O)(CCCNC(=O)c1ccc(Cl)c(NC(=O)CC(=O)C(C)(C)C)c1)OCC(CC)CCCC (centres unmarked) [(135)] | > 5 g per g of tricresyl phosphate | 445 nm |  |  |
| CCCCOP(=O)(CC(=O)Nc1cccc(NC(=O)CC(=O)c2ccccc2)c1)OCCCC [(109)] | > 5 g per g of tricresyl phosphate | 442 nm |  |  |
| COc1ccc(C(=O)NCCCP(=O)(OC(C)C)OC(C)C)cc1NC(=O)CC(=O)c1ccccc1Cl [(128)] | > 5 g per g of tricresyl phosphate | 447 nm |  |  |
| CCCCCCCCCCCCCCCCCCNS(=O)(=O)c1ccc(N(CCCC)CCCC)c(NC(=O)CC(=O)c2ccccc2)c1 [DT-OS 1,522,414] | 1.2 g per g of tricresyl phosphate |  |  |  |
| CC(C)OP(=O)(CCCOc1cccc(C(=O)NC2=NN(c3c(Cl)cc(Cl)cc3Cl)C(=O)C2)c1)OC(C)C [(217)] |  |  | 435 nm | 538 nm |
| CCCCOP(=O)(CCCOc1cccc(NC2=NN(c3ccccc3)C(=O)C2)c1)OCCCC [(412)] |  |  | 430 nm | 528 nm |
| CCCCOP(=O)(CCCOc1cccc(C(=O)Nc2cccc(C(=O)NC3=NN(c4ccccc4)C(=O)C3)c2)c1)OCCCC [(224)] |  |  | 440 nm | 534 nm |
| CCCCOP(=O)(CCCOc1cc(OCCCP(=O)(OCCCC)OCCCC)cc(C(=O)Nc2cc(Cl)c(C)c(Cl)c2O)c1)OCCCC [(701)] |  | 662 nm |  |  |
| CCCCOP(=O)(CCCC)Oc1cccc(NC(=O)Cc2ccc(NC(=O)CC(=O)c3ccccc3Cl)cc2)c1 (centres unmarked) [(138)] |  | 442 nm |  |  |
| CCCCOP(=O)(CCCOc1cc(OCCCP(=O)(OCCCC)OCCCC)cc(C(=O)Nc2cccc(C(=O)NC3=NN(c4nc5ccccc5s4)C(=O)C3)c2)c1)OCCCC [(258)] |  |  | 550 nm | 580 nm |
| CCOP(=O)(CCCOc1cccc(C(=O)Nc2c(C)cc(C)c(N3N=C(Nc4ccc(Cl)cc4)CC3=O)c2C)c1)OCC [(425)] |  |  | 430 nm | 530 nm |

| SMILES | Solubility in g per g of tricresyl phosphate [1] | Abs.max. (single maximum) [2] | Abs.max., first of two maxima (subsidiary maximum) [2] | Abs.max., second of two maxima (absorption maximum) [2] |
| --- | --- | --- | --- | --- |
| CCOP(=O)(CCCCCOc1cccc(C(=O)Nc2ccc(C(=O)NC3=NN(c4c(Cl)cc(Cl)cc4Cl)C(=O)C3)cc2)c1)OCC [(207)] |  |  | 434 nm | 540 nm |
| CCCCOP(=O)(CCCOc1cc(OCCCP(=O)(OCCCC)OCCCC)cc(C(=O)NC2=NN(c3c(Cl)cc(Cl)cc3Cl)C(=O)C2)c1)OCCCC [(221)] |  |  | 436 nm | 538 nm |
| CCOP(=O)(OCC)C(C)(C)NC(=O)c1cccc(NC(=O)CC(=O)c2ccccc2)c1 [(108)] |  | 440 nm |  |  |
| CCOP(=O)(CCCOc1ccc(C(=O)Nc2ccc(C(=O)NC3=NN(c4c(Cl)cc(Cl)cc4Cl)C(=O)C3)cc2)cc1)OCC [(203)] |  |  | 434 nm | 539 nm |
| CCCCOP(=O)(CCCOc1cccc(NC(=O)CC(=O)c2ccccc2)c1)OCCCC [(123)] |  | 436 nm |  |  |
| CCOP(=O)(OCC)C(C)(C)NC(=O)c1cc(NC(=O)CC(=O)c2ccccc2)cc(C(=O)NC(C)(C)P(=O)(OCC)OCC)c1 [(111)] |  | 440 nm |  |  |
| CCCCC(CC)COP(=O)(CCCOc1cccc(C(=O)Nc2cccc(C(=O)NC3=NN(c4c(C)cc(OC)cc4Cl)C(=O)C3)c2)c1)OCC(CC)CCCC (centres unmarked) [(264)] |  |  | 440 nm | 536 nm |
| CCCCCCCCCCCCOc1cccc(OC(CC)C(=O)Nc2cc(Cl)c(C)c(Cl)c2O)c1 (centres unmarked) | 0.7 g per g of tricresyl phosphate |  |  |  |
| CCCCOP(=O)(CCCc1ccc(NC(=O)c2ccc(OC)c(NC(=O)CC(=O)C(C)(C)C)c2)cc1)OCCCC [(118)] |  | 438 nm |  |  |
| CCCCOP(=O)(Cc1ccc(CP(=O)(OCCCC)OCCCC)c(NC(=O)c2ccc(OC)c(NC(=O)CC(=O)c3ccc(C(C)(C)C)cc3)c2)c1)OCCCC [(136)] |  | 440 nm |  |  |
| CCOP(=O)(CCCOc1cccc(C(=O)Nc2cccc(C(=O)NC3=NN(c4c(Cl)cc(Cl)cc4Cl)C(=O)C3)c2)c1)OCC [(205)] |  |  | 434 nm | 542 nm |
| CCCCOP(=O)(CCCOc1cc(OCCCP(=O)(OCCCC)OCCCC)cc(C(=O)Nc2ccc(C)c(NC(=O)CC(=O)C(C)(C)C)c2)c1)OCCCC [(117)] |  | 445 nm |  |  |
| CCOP(=O)(CCCOc1cccc(NC2=NN(c3ccccc3)C(=O)C2)c1)OCC [(401)] |  |  | 429 nm | 524 nm |
| CCCCOP(=O)(CCCc1ccc(NC(=O)c2ccc(OC)c(NC(=O)CC(=O)c3ccc(OC)cc3)c2)cc1)OCCCC [(126)] |  | 448 nm |  |  |
| CCOP(=O)(CCCN(C)c1cccc(NC(=O)CC(=O)c2ccccc2)c1)OCC [(104)] |  | 435 nm |  |  |
| CCCCOP(=O)(CCCOc1cc(OCCCP(=O)(OCCCC)OCCCC)cc(C(=O)Nc2cccc(C(=O)NC3=NN(c4c(Cl)cc(Cl)cc4Cl)C(=O)C3)c2)c1)OCCCC [(222)] |  |  | 434 nm | 544 nm |
| CCCCOP(=O)(CCCOc1cc(OCCCP(=O)(OCCCC)OCCCC)cc(C(=O)Nc2cccc(NC(=O)NC3=NN(c4c(Cl)cc(Cl)cc4Cl)C(=O)C3)c2)c1)OCCCC [(273)] |  |  | 430 nm | 547 nm |
